Measurements taken from patent US20180265867A1, “NUCLEIC ACID MOLECULES WITH ENHANCED ACTIVITY” (priority 2015, published 2018).
d = 2'-deoxy (DNA); r = 2'-OH (RNA)

Legend:
[1] = system: GAPDH; assay: GAPDH gene knockdown in MG63 cells by RT-PCR; type: cell-based, human; details: MG63 cells; for GAPDH gene knockdown: 50 nM, 24 h
Method: At 70% confluency, a day prior to transfection, the cells were seeded at a density of 35 000 cells in a 24-well cell culture plate to achieve 60-80% confluence at the day of transfection. Cell penetrating siRNAs (cpRNAs) of different lengths were transfected at 50 nM concentrations with Magnet Assisted Transfection (MATra-si) reagent for siRNAs (IBA GmbH, Göttingen, Germany) according to the manufacturers' protocols. Briefly, the siRNA was mixed with MATra-si reagent composed of supermagnetic ironoxide nanoparticles and incubated for 20 min. A complex was formed which was added to the cells to be transfected. A strong magnetic force was applied beneath the cells for 15 min. This forced the complex to be drawn into the cells by the magnetic field, and as a result the siRNA was delivered directly into the cytosol. For carrier free transfection experiments, cpRNAs were simply added to cells lines MG63, HOB, HCT116, fibroblasts and keratinocytes at 50 nM concentrations. Cells were also transfected with negative control siRNA (scrambled sequence) and cells left untreated were taken as controls. Each transfection was performed in triplicate. Post transfection, cells were incubated for 24 hours.
For the experiments involving lysosomotropic agent chloroquine (CQ), CQ was first neutralized to pH 7.4 using 1 M NaOH prior to use. MG63 cells were transfected with dT2, dT5, dT8, (dT5)2, as(dT5), and bl(dT5) siRNA in presence or absence of 100 μM CQ or using MATra-si and incubated for 24 h. Similar experiments were performed for other cpRNAs namely, dA5, dT5, dG5, (dT5)2, rA5 and dC5. For the control experiment, cells were either left untreated or transfected with negative control siRNA (scrambled sequence). Each transfection experiment was performed in triplicate.
After performing transfection experiments for 24 h, 48 h and 72 h respectively, total RNA was isolated from cells by adding 500 μl of lysis buffer (Qiagen, Germany), followed by homogenization of cell lysates using QIAshredder (Qiagen, Germany). RNA was extracted from cell lysates by RNeasy Mini Kit (Qiagen, Germany). All RNA samples were treated with DNase using TURBO-DNAfree (Ambion, USA). Agilent 2100 BioAnalyzer (Agilent Technologies, Palo Alto, Calif.) was used to confirm high quality of all RNA samples, which reports an RNA Integrity Number (RIN) that takes into account the entire electrophoretic RNA trace produced in the analysis. A RIN of greater than or equal to seven indicates the RNA is suitable for high stringency applications.
cDNA synthesis was performed in triplicate using total RNA reverse transcribed using High Capacity cDNA reverse transcription kit (Applied Biosystems, USA), with non-template control added to ensure a lack of signal in assay background. Reactions were incubated on a 96-well Applied Biosystems 9800 Fast Thermal Cycler PCR System at 37° C. for 60 min followed by 95° C. for 5 min. The real-time PCR reactions were carried out with 10 μl of 2×TaqMan® Universal PCR Master Mix, no AmpErase® UNG (Applied Biosystems, USA), 9 μl diluted cDNA, and 1 μl of TaqMan gene specific assay mix in a 20 μl final reaction volume. Reference gene beta-actin (ACTB) (Applied Biosystems, USA) was selected as control for normalization of TaqMan data. The assay included a no-template control, a standard curve of five serial dilution points (in steps of 3-fold) of cDNA mixture. Probes specific for IFN-α (Hs01022060_m1), IFN-β (Hs01077958_s1), IFN-γ (Hs00985251_m1), ACTB(Hs01060665_g1) and GAPDH (Hs02758991_g1) were purchased from Applied Biosystems. The amplification was carried out using the 7500 Fast Real-Time PCR System (Applied Biosystems, USA) using a 40-cycle program. The 7500 software automatically calculates raw Ct (cycle threshold) values. Data from samples with a Ct value equal to or below 35 were further analyzed. […]

[2] = Thermal denaturation (Tm) of siRNA duplexes; type: physicochemical; details: for Tm: 7.5 mM phosphate buffer pH 7.0 containing 140 mM KCl, 1 μM strands, 40-95° C.; for Δ Tm: Tm relative to canonical siRNA (dT2); for drop in Tm: as compared to canonical siRNA
Method: Thermal denaturation studies of siRNA was carried out in phosphate buffer, pH 7.0, containing 140 mM KCl. UV absorbance was monitored at 260 nm in the temperature range from 40 to 95° C. using a Lambda 35 UV-Vis spectrophotometer equipped with a Peltier temperature programmer with a heating rate of 0.5° C./min. Samples (1 μM RNA) were denatured at 90° C. for 3 min followed by slow cooling to 27° C. prior to the measurements. Tm values were obtained from the maxima of the first derivatives of the melting curves. All Tm values given are the averages of three independent sets of experiments (±0.3° C. error range).

[3] = system: Ctnnb1 (β-Catenin); assay: Ctnnb1 expression in MC3T3-E1 cells by quantitative RT-PCR; type: cell-based, mouse
Method: MC3T3-E1 cells were cultured in α-MEM (Sigma-Aldrich, Haverhill, UK) medium containing 10% FBS, 1% L-Glutamine, and 1% antibiotics (PeSt) at 37° C. with 5% CO2. One day prior to the miRNA treatment, 35,000 cells were plated per each well of a 24-well plate. On the experiment day, cells were replaced with 2% heat inactivated-FBS containing α-MEM medium with 1% L-Glutamine, and 1% antibiotics (PeSt). miR-34a-CP (final concentration: 50 nM) was given to the each well. Mirvana scrambled miRNA mimic was used as a negative control.
After 24 hours of transfection, and incubation, RNA extraction was performed by using miRCURY RNA Isolation Kit—Cell and Plant (#300100) and protocol from Exiqon, Vedbæk, Denmark. RNA samples were treated with DNase for 30 minutes at 37 degrees, thereafter inactivated with a DNase inactivation solution (TUTRBO DNase AM2238 thermofisher). Thereafter, RNA concentrations were measured using NanoDrop ND-1000 from NanoDrop Technologies, Wilmington, Del.
The cDNA was made from the total RNA using High Capacity cDNA reverse transcription kit (Applied Biosystems, USA). Reactions were performed on a 96-well Bio-Rad Thermal Cycler PCR System at 37° C. for 60 minutes, and at 95° C. for 5 min respectively. Real-time PCR reactions were performed as follows: 10 μl of 2×TaqMan® Universal PCR Master Mix, no AmpErase® UNG (Applied Biosystems, USA), 9 μl 1:5 diluted cDNA, and 1 μl of TaqMan gene specific assay mix. Final volume of the reaction mix was 20 uL. Internal control gene beta-actin (ACTB) (Applied Biosystems, USA) was selected as control for normalization of TaqMan data. The qRT-PCR reaction comprised a non-template control of cDNA in order to rule out any non-specific reading. Taqman probes for Ctnnb1, Sox9, Actb, were obtained from Applied Biosystems. The qRT-PCR amplification was carried out using the Bio-Rad qRT-PCR Thermocycler.
In order to achieve the transfection reagent free delivery of therapeutically potential microRNAs, we tested miR-34a and compared with miR-34a-CP. Since microRNAs unlike siRNAs have multiple targets in the cell, and there is a necessity to reduce the off-target and undesirable effects if any, we have also designed siRNA model siR-34a-CP as stated above. We have used mouse preosteoblast cell line MC3T3-E1 obtained from calvarial bone for the in-vitro functional validation of cell-penetrating molecules. On the day before transfection experiment, 35000 MC3T3-E1 cells were cultured per each well of the 24-well culture plate in alpha-Minimum Essential Medium with 10% heat inactivated FBS, 1% L-Glutamine, 1% antibiotics (Pe/St). […] 5% CO2. Thereafter, RNA extraction, cDNA preparation, and quantitative real-time PCR was performed by using TaqMan procedure.

[4] = without transfection reagent MaTra (FIG. 12)

Substance | GAPDH gene knockdown ([1]; carrier-free transfection) | Tm [2] | Δ Tm [2] | drop in Tm [2] | other results
bl(dT5): GAPDH siRNA, sense SEQ ID NO: 3 with dT5, blunt ended antisense SEQ ID NO: 11 without overhang (sense CCGAGCCACAUCGCUCAGATTTTT; antisense UCUGAGCGAUGUGGCUCGG; sense: sugars from the 5' end r19 d5, backbone not given here; antisense: RNA, backbone not given here) | 60% | 79.1 °C | −2.1 °C |  | decrease in activity ([1]; 3′-dT2 of antisense strand removed, versus dT5): 20%
miR-34a: Natural miR-34a duplex, sense SEQ ID NO: 20, antisense SEQ ID NO: 21 (sense CAAUCAGCAAGUAUACUGCCCU; antisense UGGCAGUGUCUUAGCUGGUUGU; unmodified RNA) [reference compound] |  |  |  |  | Ctnnb1 expression ([3]; transfected with MaTra (FIG. 12)): induced over expression of Ctnnb1; Ctnnb1 expression [3, 4]: did not show any effect on the expression levels of Ctnnb1
rA5: GAPDH siRNA, sense SEQ ID NO: 9 with ribo A5 3′-overhang, antisense SEQ ID NO: 10 with U2 (sense CCGAGCCACAUCGCUCAGAAAAAA; antisense UCUGAGCGAUGUGGCUCGGUU; RNA, backbone not given here) | 60% | 79.0 °C | −2.2 °C |  | 
as(dT5): GAPDH siRNA, sense SEQ ID NO: 1 with dT2, antisense SEQ ID NO: 5 with dT5 3′-overhang (sense CCGAGCCACAUCGCUCAGATT; antisense UCUGAGCGAUGUGGCUCGGTTTTT; sense: sugars from the 5' end r19 d2, backbone not given here; antisense: sugars from the 5' end r19 d5, backbone not given here) | 20% | 79.5 °C | −1.7 °C |  | 
dC5: GAPDH siRNA, sense SEQ ID NO: 8 with dC5 3′-overhang, antisense SEQ ID NO: 2 with dT2 (sense CCGAGCCACAUCGCUCAGACCCCC; antisense UCUGAGCGAUGUGGCUCGGTT; sense: sugars from the 5' end r19 d5, backbone not given here; antisense: sugars from the 5' end r19 d2, backbone not given here) |  | 80.9 °C | −0.3 °C |  | 
(dT5)2: Symmetrical GAPDH siRNA, sense SEQ ID NO: 3 and antisense SEQ ID NO: 5, dT5 overhang at both 3′-ends (sense CCGAGCCACAUCGCUCAGATTTTT; antisense UCUGAGCGAUGUGGCUCGGTTTTT; sugars from the 5' end r19 d5, backbone not given here) | 65% | 80.1 °C | −1.1 °C | ~1 °C | enhancement in activity compared to canonical siRNA ([1]; MATra-si transfection): 10%; GAPDH gene knockdown ([1]; MATra-si transfection): 70%
siR-34a-CP: Cell penetrating siRNA analog of miR-34a, sense SEQ ID NO: 24 with dA5, antisense SEQ ID NO: 25 (sense AAUCAGCUAAGUAUACUGCCAAAAAA; antisense UGGCAGUGUACUUAGCUGGUUGU; sense: sugars from the 5' end r21 d5, backbone not given here; antisense: RNA, backbone not given here) |  |  |  |  | Ctnnb1 expression ([3]; 50 nM, 24 h, alone without transfection reagent (FIG. 11)): up regulation of Ctnnb1; Ctnnb1 expression [3, 4]: up regulation of Ctnnb1
dA5: GAPDH siRNA, sense SEQ ID NO: 6 with dA5 3′-overhang, antisense SEQ ID NO: 2 with dT2 (sense CCGAGCCACAUCGCUCAGAAAAAA; antisense UCUGAGCGAUGUGGCUCGGTT; sense: sugars from the 5' end r19 d5, backbone not given here; antisense: sugars from the 5' end r19 d2, backbone not given here) | 80% | 79.6 °C | −1.6 °C | ~1.5 °C | RNAi activity among different 5-nt candidates ([1]; FIG. 2B): highest RNAi activity
dG5: GAPDH siRNA, sense SEQ ID NO: 7 with dG5 3′-overhang, antisense SEQ ID NO: 2 with dT2 (sense CCGAGCCACAUCGCUCAGAGGGGG; antisense UCUGAGCGAUGUGGCUCGGTT; sense: sugars from the 5' end r19 d5, backbone not given here; antisense: sugars from the 5' end r19 d2, backbone not given here) |  | 79.2 °C | −2.0 °C | ~2 °C | 
